Measurements published in patent US9096593B2, “Compounds and methods for kinase modulation, and indications therefor” (Plexxikon Inc., priority 2009, dated 2015).

Test system: Osteoclast precursor cells
Test: Osteoclast differentiation assay (acid phosphatase readout)
Assay type: cell-based
Conditions: RANKL and M-CSF
Experimental: Further, an osteoclast differentiation assay is used to assess the efficacy of Fms inhibitors for treating bone disease such as osteoarthritis. On day 0, Osteoclast Medium BulletKit (Lonza catalog #PT-8001, containing Media, FBS, L-Glutamine, PenStrep, RANKL, and M-CSF) media is thawed and the FBS, L-glutamine and PenStrep from the kit is added to 100 mL of Osteoclast Precursor Basal medium to provide the Osteoclast Precursor Growth Medium (OPGM). This is warmed to 37° C. Osteoclast precursor cells (Lonza catalog #2T-110) frozen in cryovial are warmed to 37° C. and transferred to a 50 mL conical tube. The cryovial is rinsed with OPGM and added dropwise to the conical tube of cells with swirling, then the volume is adjusted to 20-30 mL with addition of OPGM. The cells are centrifuged at 200×g for 15 minutes at room temperature and all but approximately 3 mL of supernatant is removed to a new conical tube. The cells are suspended in the remaining supernatant and the volume is adjusted to 10-15 mL with OPGM added dropwise with swirling. […] The cells are resuspended in the remaining supernatant, counted, and the volume adjusted with an appropriate amount of OPGM to provide approximately 1×10^5 cells/mL. […] The absorbance of each well is read at 405 nm on Safire plate reader. The absorbance reading is plotted vs. concentration to provide the IC50 for each compound.

## Clc1cnc2[nH]cc(Cc3ccc(NCc4ccc(Cl)nc4)nc3)c2c1 [Compound P-2003]
  IC50: < 0.1 µM
